Like-named read-outs stand apart in the source and are kept apart here.
Key:
[1] = molecular target: T1, XIAP-BIR3 (Homo sapiens, UniProt P98170); assay: XIAP BIR-3 fluorescence polarization binding assay; conditions: read-out: KD Range
T1 construct: 40 nM of XIAP-BIR3 for 15 min at RT
Protocol: Following incubation, the polarization values (mP) were measured on a Victor^2V using a 485 nm excitation filter and a 520 nm emission filter. IC50 values were determined from the plot using nonlinear least-squares analysis using GraphPad Prism.

[2] = test system: SK-OV-3 cells; assay: 72 hour MTT cell survival assay, SK-OV-3; format: cell-based; conditions: SK-OV-3 ovarian cancer cell line, FIG. 3
Protocol: (§1) A 72 hour MTT assay, as previously described by Hansen, M. B., Nielsen, S. E., and Berg, K. ((1989) J. Immunol. Methods 119, 203-210) and incorporated herein by reference in its entirety, was used to differentiate between a specific versus non-specific effect on cell killing by Smac mimetics. Briefly, SK-OV-3 cells were seeded in 96-well plates in McCoy's medium containing 10% fetal bovine serum […] (20,000 per well) and incubated overnight at 37 C. […] 50 microliters of 5 mg/mL MTT reagent was then added to each well and the plates were incubated at 37° C. for 3 hours. At the end of the incubation period, 50 microliters of DMSO was added to each well to dissolve cells and the optical density (OD) of the wells was measured using a microplate reader (Victor^2 1420, Wallac, Finland) at 535 nm. Cell survival (CS) was calculated by the following equation CS=(OD treated well/mean OD control wells)×100%
The EC50, defined as the drug concentration that results in 50% CS, was derived by calculating the point where the dose-response curve crosses the 50% CS point using GraphPad Prism.

[3] = test system: MRC-5 cells; assay: 72 hour MTT assay, normal cell control MRC-5; format: cell-based; conditions: MRC-5 normal diploid cell line, FIG. 3
Protocol: as §1
Smac mimetic Entry 116 was tested using an ovarian cancer cell line, SK-OV-3, and MRC-5 cells were used as a normal cell control.

[4] = test system: MDA MB-231 cells; assay: Apoptosis induction, Annexin V/Propidium Iodide staining; format: cell-based
Protocol: To show the ability of Smac mimetics to induce apoptosis, Annexin V-fluorescein isothiocyanate staining was performed. […] Cells were then pelleted and resuspended in assay buffer (supplied by manufacturer). Annexin V and propidium iodide were added to the cell preparations and incubated for 1 hour in the dark at room temperature. Following the incubation additional buffer (200 μl) was then added to each tube, and the samples were analyzed immediately by flow cytometry. In the presence of Smac mimetics apoptosis was strongly promoted, as assessed by annexin/PI staining and analyzed by flow cytometry. The amplification in the number of apoptotic cells (Annexin V positive/propidium iodide negative—lower right quadrant) by IAP antagonists as compared to control was dose dependent and due to the induction of apoptosis and not via increasing the proportion of necrotic cells.

[5] = Half life after single intravenous dose in rat; conditions: in vivo, single IV dose 1 mg/kg, FIG. 2, read-out: terminal elimination half life (converted)
Protocol: The IV dose for each Smac mimetic was 1 mg/kg.

[6] = test system: OVCAR-3 cells; assay: Cytotoxicity synergy matrix (MacSynergy II) with paclitaxel, cisplatin, carboplatin; format: cell-based
Protocol: To further assess potential drug-drug interactions a matrix of the permutations of two-fold serial dilutions of each drug and a Snac mimetic were tested as well as the activity of each compound alone using a program called MacSynergy II (Prichard, M. N., K. R. Aseltine, and C. Shipman, Jr. 1993. MacSynergy II. User's manual. Univ. of Michigan, Ann Arbor). The synergy with paclitaxel and the Smac peptidomimetic Entry 122 in OVCAR3 cells was tested. The highest amount of synergy detected is 10-20% which indicates greater cell death than would be expected by adding together the cytotoxicity of either compound alone.
Paclitaxel the dosage ranged from about 0.0 to about 500.0 nM. For Entry 122, the dosage range was about 125.0 to about 8000.0 nM. The total synergistic volume was about 170.
The synergy with cisplatin and the Smac peptidomimetics in OVCAR-3 cells was tested The highest amount of synergy is 40-50% more cell death than would be expected by adding together the cytotoxicity of each compound alone. […] For cisplatin the dosage range was about 0.0 to about 166,500.0 nM. For Entry 122, the dosage range was about 500.0 to about 32,000.0 nM. The total synergistic volume was about 434. Similar tests were performed with the combination of carboplatin and Smac mimetics. Synergy between a Smac peptidomimetic, Entry 122, and carboplatin.

[7] = 5 nM AbuRPF-K(5-Fam)-NH2, 40 nM XIAP-BIR3, 15 min RT, pH 7.5

T1 sequence (P98170 241-356 limits assumed): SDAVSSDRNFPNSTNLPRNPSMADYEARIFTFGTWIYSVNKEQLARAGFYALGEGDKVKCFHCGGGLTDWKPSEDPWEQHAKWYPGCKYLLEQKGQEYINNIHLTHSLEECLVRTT

## CNC(C)C(=O)NC(C(=O)N1CC(O)CC1Cc1c(-c2[nH]c3cc(F)ccc3c2CC2CC(O)CN2C(=O)C(NC(=O)C(C)NC)C(C)OC(C)(C)C)[nH]c2cc(F)ccc12)C(C)OC(C)(C)C (stereo not shown) [Entry 89]
[1]; Example 4 series
  Kd: 100 to 1000 nM

## CNC(C)C(=O)NC(C(=O)N1CC(O)CC1Cc1c(-c2[nH]c3cc(F)ccc3c2CC2CC(O)CN2C(=O)C(NC(=O)C(C)NC)C(C)O)[nH]c2cc(F)ccc12)C(C)O (stereo not shown) [Entry 90]
[1]; Example 4 series
  Kd: < 100 nM

## CN[C@H](C)C(=O)N[C@H](C(=O)N1CCC[C@H]1Cc1c(-c2[nH]c3cc(F)ccc3c2C[C@@H]2CCCN2C(=O)[C@@H](NC(=O)[C@@H](C)NC)C(C)C)[nH]c2cc(F)ccc12)C(C)C [Entry 91]
[1]; Example 4 series
  Kd: 100 to 1000 nM

## CNC(C)C(=O)NC1CC=CCC(NC(=O)C(C)NC)C(=O)N2CCCC2Cc2c3n(c4cc(F)ccc24)CCn2c-3c(c3ccc(F)cc32)CC2CCCN2C1=O (stereo not shown) [Entry 95]
[1]; [7]
  Kd: < 100 nM

## CN[C@@H](C)C(=O)NC1CCCC[C@H](NC(=O)[C@H](C)NC)C(=O)N2CCC[C@H]2Cc2c3n(c4ccc(F)cc24)CCn2c-3c(c3cc(F)ccc32)C[C@@H]2CCCN2C1=O (stereo partly shown) [Entry 97]
[1]; [7]
  Kd: < 100 nM

## CN[C@@H](C)C(=O)N[C@H](C(=O)N1CCC[C@H]1Cc1c(-c2[nH]c3ccccc3c2C[C@@H]2CCCN2C(=O)[C@@H](NC(=O)[C@H](C)NC)[C@@H](C)O)[nH]c2ccccc12)[C@@H](C)O [Entry 105]
[1]; Example 7 series
  Kd: < 100 nM

## CN[C@@H](C)C(=O)N[C@H](C(=O)N1C[C@@H](O)C[C@H]1Cc1c(-c2[nH]c3cc(F)ccc3c2C[C@@H]2C[C@H](O)CN2C(=O)[C@@H](NC(=O)[C@H](C)NC)[C@H](C)OC(C)(C)C)[nH]c2cc(F)ccc12)[C@H](C)OC(C)(C)C [Entry 114]
[1]; Example 7 series
  Kd: < 100 nM

## CN[C@@H](C)C(=O)N[C@H](C(=O)N1C[C@@H](O)C[C@H]1Cc1c(-c2[nH]c3cc(F)ccc3c2C[C@@H]2C[C@H](O)CN2C(=O)[C@@H](NC(=O)[C@H](C)NC)[C@@H](C)OC)[nH]c2cc(F)ccc12)[C@@H](C)OC [Entry 116]
[1]; Example 7 series
  Kd: < 100 nM
[2]
  more effective at killing tumor cells than negative controls: 100,000 ×
[3]
  effect on normal (non-tumorigenic) cells: unaffected

## CN[C@@H](C)C(=O)N[C@H](C(=O)N1CCC[C@H]1Cc1cn(CC#CC#CCn2cc(C[C@@H]3CCCN3C(=O)[C@@H](NC(=O)[C@H](C)NC)C(C)(C)C)c3ccccc32)c2ccccc12)C(C)(C)C [Entry 119]
[1]; [7]
  Kd: < 100 nM

## CN[C@@H](C)C(=O)N[C@H](C(=O)N1CCC[C@H]1Cc1cn(CC#CC#CCn2cc(C[C@@H]3CCCN3C(=O)[C@@H](NC(=O)[C@H](C)NC)C3CCCCC3)c3ccccc32)c2ccccc12)C1CCCCC1 [Entry 120]
[1]; [7]
  Kd: < 100 nM

## CN[C@@H](C)C(=O)N[C@H](C(=O)N1CCC[C@H]1Cc1cn(CC#CC#CCn2cc(C[C@@H]3CCCN3C(=O)[C@@H](NC(=O)[C@H](C)NC)C(C)C)c3ccccc32)c2ccccc12)C(C)C [Entry 121]
[1]; [7]
  Kd: < 100 nM
[4]; MDA MB-231, after 4 hours
  apoptosis induced, agent alone: failed to induce significant apoptosis
  increase in apoptotic activity, combination of TRAIL with compound: 4 fold
[4]; MDA MB-231, without TRAIL
  apoptosis, compound alone: approximately 10 % of cell total

## CN[C@@H](C)C(=O)N[C@H](C(=O)N1CCC[C@H]1Cc1cn(CCOCCn2cc(C[C@@H]3CCCN3C(=O)[C@@H](NC(=O)[C@H](C)NC)C3CCCCC3)c3ccccc32)c2ccccc12)C1CCCCC1 [Entry 122]
[1]; Example 9 series
  Kd: < 100 nM
[5]
  half-life: ≤ 6 h
[6]; OVCAR3, paclitaxel 0.0-500.0 nM, compound 125.0-8000.0 nM
  total synergistic volume: about 170
[6]; OVCAR3, with paclitaxel
  highest amount of synergy detected: 10-20%
[6]; OVCAR-3, cisplatin 0.0-166,500.0 nM, compound 500.0-32,000.0 nM
  total synergistic volume: about 434
[6]; OVCAR-3, with carboplatin
  synergy with carboplatin: Synergy
[6]; OVCAR-3, with cisplatin
  highest amount of synergy, more cell death than expected: 40-50%

## CN[C@@H](C)C(=O)N[C@H](C(=O)N1CCC[C@H]1Cc1cn(CCOCCn2cc(C[C@@H]3CCCN3C(=O)[C@@H](NC(=O)[C@H](C)NC)C3CCCCC3)c3ccc(F)cc32)c2cc(F)ccc12)C1CCCCC1 [Entry 123]
[1]; Example 9 series
  Kd: < 100 nM
[5]
  half-life: ≤ 6 h

## CN[C@@H](C)C(=O)N[C@H](C(=O)N1CCC[C@H]1Cc1cn(CCOCCn2cc(C[C@@H]3CCCN3C(=O)[C@@H](NC(=O)[C@H](C)NC)[C@@H](C)O)c3ccc(F)cc32)c2cc(F)ccc12)[C@@H](C)O [Entry 124]
[1]; Example 9 series
  Kd: < 100 nM

## CC[C@H](NC)C(=O)N[C@H](C(=O)N1CCC[C@H]1Cc1cn(CCOCCn2cc(C[C@@H]3CCCN3C(=O)[C@@H](NC(=O)[C@H](CC)NC)[C@@H](C)O)c3cc(F)ccc32)c2ccc(F)cc12)[C@@H](C)O [Entry 125]
[1]; Example 9 series
  Kd: 100 to 1000 nM

## CN[C@@H](C)C(=O)N[C@H](C(=O)N1CCC[C@H]1Cc1cn(CCOCCn2cc(C[C@@H]3CCCN3C(=O)[C@@H](NC(=O)[C@H](C)NC)C3CCCCC3)c3cc(F)ccc32)c2ccc(F)cc12)C1CCCCC1 [Entry 126]
[1]; Example 9 series
  Kd: < 100 nM

## CN[C@@H](C)C(=O)N[C@H](C(=O)N1CCC[C@H]1Cc1c(C)n(CCOCCn2c(C)c(C[C@@H]3CCCN3C(=O)[C@@H](NC(=O)[C@H](C)NC)C3CCCCC3)c3cc(F)ccc32)c2ccc(F)cc12)C1CCCCC1 [Entry 127]
[1]; Example 9 series
  Kd: < 100 nM

## CN[C@@H](C)C(=O)N[C@H](C(=O)N1CCC[C@H]1Cc1cn(CCOCCn2cc(C[C@@H]3CCCN3C(=O)[C@@H](NC(=O)[C@H](C)N)C3CCCCC3)c3ccccc32)c2ccccc12)C1CCCCC1 [Entry 143]
[1]; Example 9 series
  Kd: < 100 nM

B1: TRAIL: tumor necrosis factor-related apoptosis-inducing ligand (TRAIL) (protein, UniProt P50591 1-281, looked up)
Tumor necrosis factor ligand …: MAMMEVQGGPSLGQTCVLIVIFTVLLQSLCVAVTYVYFTNELKQMQDKYSKSGIACFLKEDDSYWDPNDEESMNSPCWQVKWQLRQLVRKMILRTSEETISTVQEKQQNISPLVRERGPQRVAAHITGTRGRSNTLSSPNSKNEKALGRKINSWESSRSGHSFLSNLHLRNGELVIHEKGFYYIYSQTYFRFQEEIKENTKNDKQMVQYIYKYTSYPDPILLMKSARNSCWSKDAEYGLYSIYQGGIFELKENDRIFVSVTNEHLIDMDHEASFFGAFLVG
[4]; MDA MB-231, after 4 hours
  apoptosis induced, agent alone: little, if any
